From the supplement of paper PMC10307832

Experiments:
Assay in all cases: relative viability (nuclei count vs DMSO), 5 days (fraction); higher = more cells survive
Bortezomib + Linsitinib = compound: CC(C)C[C@H](NC(=O)[C@H](Cc1ccccc1)NC(=O)c1cnccn1)B(O)O [Bortezomib] + C[C@]1(O)C[C@@H](c2nc(-c3ccc4ccc(-c5ccccc5)nc4c3)c3c(N)nccn32)C1 [Linsitinib] (partner 1 µM)
Summary of the method: (§1)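 Relative viability divides the nuclei count in treated wells by that in vehicle wells. Lung cancer cell lines were seeded in 1536-well plates, dosed by pin tool the next day, and fixed and stained after 5 days in one step with final 0.05% Triton X-100, 1% formaldehyde and 1 ug/ml Hoechst. Dosing was a single drug or a fixed anchor-drug dose plus five library-drug doses (not always all listed) in √10 steps, and values are medians of duplicate plates imaged at 4×.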

Bortezomib + Olaparib = compound: CC(C)C[C@H](NC(=O)[C@H](Cc1ccccc1)NC(=O)c1cnccn1)B(O)O [Bortezomib] + O=C(c1cc(Cc2n[nH]c(=O)c3ccccc23)ccc1F)N1CCN(C(=O)C2CC2)CC1 [Olaparib] (partner 8 µM)
Summary of the method: as §1

[1] = compound: CC1=CC(=NN1)NC2=CC(=NC(=N2)/C=C/C3=CC=CC=C3)N4CCN(CC4)C + C[C@]1(O)C[C@@H](c2nc(-c3ccc4ccc(-c5ccccc5)nc4c3)c3c(N)nccn32)C1 [Linsitinib] (partner 1 µM)
Summary of the method: as §1

Obatoclax + Linsitinib = compound: COC1=CC(c2cc3ccccc3[nH]2)=N/C1=C\c1[nH]c(C)cc1C [Obatoclax] + C[C@]1(O)C[C@@H](c2nc(-c3ccc4ccc(-c5ccccc5)nc4c3)c3c(N)nccn32)C1 [Linsitinib] (partner 1 µM)
Summary of the method: as §1

Row | Cell Line | relative viability (Bortezomib + Linsitinib; first compound 0.0002 µM) | relative viability (Bortezomib + Linsitinib; first compound 0.000632 µM) | relative viability (Bortezomib + Linsitinib; first compound 0.002 µM) | relative viability (Bortezomib + Linsitinib; first compound 0.006325 µM) | relative viability (Bortezomib + Linsitinib; first compound 0.02 µM) | relative viability (Bortezomib + Olaparib; first compound 0.0002 µM) | relative viability (Bortezomib + Olaparib; first compound 0.000632 µM) | relative viability (Bortezomib + Olaparib; first compound 0.002 µM) | relative viability (Bortezomib + Olaparib; first compound 0.006325 µM) | relative viability (Bortezomib + Olaparib; first compound 0.02 µM) | relative viability ([1]; first compound 0.08 µM) | relative viability ([1]; first compound 0.253 µM) | relative viability ([1]; first compound 0.8 µM) | relative viability ([1]; first compound 2.53 µM) | relative viability ([1]; first compound 8 µM) | relative viability (Obatoclax + Linsitinib; first compound 0.01 µM) | relative viability (Obatoclax + Linsitinib; first compound 0.03162 µM) | relative viability (Obatoclax + Linsitinib; first compound 0.1 µM) | relative viability (Obatoclax + Linsitinib; first compound 0.3162 µM) | relative viability (Obatoclax + Linsitinib; first compound 1 µM)
1 | HCC-366 | 0.494 | 0.574 | 0.677 | 0.51 | 0.0152 | 0.358 | 0.376 | 0.455 | 0.0607 | 0.0196 | 0.478 | 1.13 | 0.64 | 0.102 | 0.0084 | 0.597 | 0.675 | 0.64 | 0.454 | 0.427
2 | NCI-H2405 | 0.868 |  | 0.32 | 0.147 | 0.169 | 0.859 | 0.834 | 0.334 | 0.199 | 0.161 | 0.951 | 0.674 | 1.06 | 0.499 | 0.164 | 0.936 | 1.11 |  | 0.866 | 0.87
3 | Calu-6 | 0.938 | 0.775 | 0.961 | 0.214 | 0.0654 | 0.509 | 0.524 | 0.529 | 0.0855 | 0.0795 | 0.98 | 0.997 | 0.883 | 0.441 | 0.158 | 0.95 | 0.898 | 0.946 | 0.852 | 0.652
4 | 201T | 1.04 | 1.1 | 0.921 | 1.08 | 0.4 | 0.83 | 0.856 | 0.803 | 0.753 | 0.214 | 1.02 | 1.07 | 1 | 0.897 | 0.819 | 1.04 | 1.01 | 1.02 | 1.06 | 1.03
